# From article doi:10.1101/2025.07.31.667081v1 (biorxiv, 2025)
# Numbering of substitutions follows the chain as printed.
# Key:
# Type in all cases: cell-based
# [1] = target: T1, NVL-SNAP (recombinant NVL WT; SNAP-NVL-3xFlag) (Homo sapiens, UniProt O15381, R403W); assay: in-cell UV photocrosslinking, click dye, gel fluorescence of purified NVL
# T1 sequence (O15381 1-856 R403W): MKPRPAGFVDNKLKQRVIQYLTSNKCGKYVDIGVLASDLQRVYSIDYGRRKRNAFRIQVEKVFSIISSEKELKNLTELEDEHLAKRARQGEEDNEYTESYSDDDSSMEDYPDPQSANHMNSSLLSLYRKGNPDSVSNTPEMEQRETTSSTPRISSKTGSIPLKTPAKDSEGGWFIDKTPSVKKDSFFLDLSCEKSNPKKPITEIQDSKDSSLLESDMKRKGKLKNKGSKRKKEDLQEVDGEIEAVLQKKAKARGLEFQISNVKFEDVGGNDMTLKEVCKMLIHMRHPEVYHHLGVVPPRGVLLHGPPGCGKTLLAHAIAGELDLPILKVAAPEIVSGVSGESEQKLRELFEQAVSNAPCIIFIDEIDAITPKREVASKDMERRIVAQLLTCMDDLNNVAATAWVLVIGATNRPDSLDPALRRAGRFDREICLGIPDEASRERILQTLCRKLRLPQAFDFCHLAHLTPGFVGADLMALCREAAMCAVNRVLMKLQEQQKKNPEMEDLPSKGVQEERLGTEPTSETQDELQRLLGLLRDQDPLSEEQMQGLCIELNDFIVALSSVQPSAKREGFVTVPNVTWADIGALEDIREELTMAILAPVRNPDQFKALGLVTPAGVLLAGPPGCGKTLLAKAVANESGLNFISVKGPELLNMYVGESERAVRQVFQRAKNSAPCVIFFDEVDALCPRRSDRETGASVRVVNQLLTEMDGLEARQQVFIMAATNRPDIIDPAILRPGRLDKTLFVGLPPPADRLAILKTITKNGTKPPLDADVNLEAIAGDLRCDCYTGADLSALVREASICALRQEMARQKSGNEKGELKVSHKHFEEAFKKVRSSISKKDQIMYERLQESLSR
# [2] = target: T2, NVL-SNAP (recombinant NVL WT; SNAP-NVL-3xFlag) (Homo sapiens, UniProt O15381); assay: as above
# T2 sequence (O15381 1-856): T1 sequence (O15381 1-856 R403W) with W403R
# [3] = target: T2, NVL-SNAP (recombinant NVL WT; SNAP-NVL-3xFlag); assay: competition of MM514 photocrosslinking to NVL-SNAP
Structure (SMILES),EC50 [1] [nM],EC50 [2] [nM],EC50 [3] [nM]
"C#CCOCCN1C(=O)c2ccccc2Sc2cc(NC(=O)c3ccc(N=[N+]=[N-])cc3)ccc21 [MM514, 4-Azido-N-(11-oxo-10-(2-(prop-2-yn-1-yloxy)ethyl)-10,11-dihydro-dibenzo[b,f][1,4]thiazepin-7-yl)benzamide]",> 17000,490,–
"COCCN1C(=O)c2ccccc2Sc2cc(NC(=O)c3ccc(OC)cc3)ccc21 [MM524, 4-Methoxy-N-(10-(2-methoxyethyl)-11-oxo-10,11-dihydrodibenzo[b,f][1,4]thiazepin-7-yl)benzamide]",–,–,2600
"COCCN1C(=O)c2ccccc2Sc2cc(NC(=O)c3ccccc3OC)ccc21 [MM691, 2-Methoxy-N-(10-(2-methoxyethyl)-11-oxo-10,11-dihydrodibenzo[b,f][1,4]thiazepin-7-yl)benzamide]",–,–,26000
